System: diarrhea-predominant IBS subjects
Type: in vivo, human
Details: TEAE incidence, 2 mg, Safety Population
Experimental: The study was performed in approximately 150 study centers. Approximately 1600 eligible subjects were to be given cilansetron 2 mg TID. At Visit 1, pre-treatment assessments were conducted. […] Subjects were to return to the study site one month later for Visit 3 (Day 31) for their first interim assessment. […] All subjects who discontinued from the study were to have the same post-study assessments required at Visit 7 performed at their early termination visit. […]
Stool specimens were analyzed at every visit for occult blood. An independent GERB had been established to provide advice on GI AEs during the course of the study.
Adverse events were assessed at Baseline, at each clinic visit, and at the end of the study (Month 12 or the early termination visit). All AEs, which occurred during the study were followed up in accordance with good medical practice until resolved or judged no longer clinically significant, or if a condition was chronic, until fully characterized. Adverse events could occur in the specified follow-up period and, regardless of the interval since the last administration of the study medication, were treated in the same manner as an AE which occurred during the treatment with study medication. Each AE was evaluated for duration, severity, seriousness, and causal relationship to the investigational drug. The action taken and the outcome were also recorded.
Specifically, subjects who were lost to follow-up and had no post-Baseline contact with the site were excluded from the Safety population. The subjects who discontinued from the study due to lost to follow-up were identified based on the information collected on the study termination CRF page.
After the pretreatment assessment at Visit 1 (Days […] to −3), subjects were to return to the study site for a Baseline assessment and start the treatment at Visit 2 (Day 1).
For the by time-interval analyses of disposition, prevalence of AEs, and of markedly abnormal and predefined changes in laboratory values, vital signs, and ECGs, the following interval windows were used:
Adverse events that were already present prior to the first dose of cilansetron study medication but increased in severity afterwards were considered as treatment-emergent.
The 5% cutoff point was based on the incidence within higher level terms.
Subjects were counted at most once for each primary system organ class and preferred term. Serious AEs that resolved prior to receiving study medication or occurred more than 30 days after the last dose of study medication were not included in the incidence tables. A listing of all SAEs is presented; SAEs with onset prior to receiving study medication or more than 30 days after discontinuation of study medication were flagged. The listing presents lower level term and preferred term of the SAE, severity, action taken, outcome, and relationship of the SAE, start and stop date of the SAE, study day of onset of the SAE, age, race, and sex.

Cc1nccn1C[C@H]1CCc2c(c3cccc4c3n2CCC4)C1=O [cilansetron, (R)-(−)-4,5,6,8,9,10-hexahydro-10-[(2-methyl-1H-imidazol-1-yl)methyl]-11H-pyrido-[3,2,1-jk]-carbazol-11-one]
Limb Injuries NEC (Incl Traumatic Amputation) (HLT): 4 (<1%) n (%)
Lower Limb Fractures and Dislocations (HLT): 4 (<1%) n (%)
Menopausal Effects NEC* (HLT): 2 (<1%) n (%)
Menopausal Effects on the Genitourinary Tract* (HLT): 1 (<1%) n (%)
Menstruation and Uterine Bleeding NEC* (HLT): 3 (<1%) n (%)
Menstruation with Decreased Bleeding* (HLT): 4 (<1%) n (%)
Menstruation with Increased Bleeding* (HLT): 2 (<1%) n (%)
Mental Disorders NEC (HLT): 1 (<1%) n (%)
Metabolic Bone Disorders (HLT): 4 (<1%) n (%)
Mood Alterations with Depressive Symptoms (HLT): 1 (<1%) n (%)
Muscle Pains (HLT): 12 (<1%) n (%)
Muscle Related Signs and Symptoms NEC (HLT): 8 (<1%) n (%)
Muscle, Tendon and Ligament Injuries (HLT): 14 (<1%) n (%)
Myocardial Disorders NEC (HLT): 2 (<1%) n (%)
Nasal Congestion and Inflammations (HLT): 10 (<1%) n (%)
Nasal Disorders NEC (HLT): 5 (<1%) n (%)
Non-Site Specific Injuries NEC (HLT): 10 (<1%) n (%)
Non-Site Specific Procedural Complications (HLT): 5 (<1%) n (%)
Oedema NEC (HLT): 1 (<1%) n (%)
Osteoarthropathies (HLT): 4 (<1%) n (%)
Ovarian and Fallopian Tube Cysts and Neoplasms* (HLT): 2 (<1%) n (%)
Pain and Discomfort NEC (HLT): 20 (1%) n (%)
Panic Disorders (HLT): 4 (<1%) n (%)
Papulosquamous Conditions (HLT): 6 (<1%) n (%)
Paranasal Sinus Disorders (Excl Infections and Neoplasms) (HLT): 6 (<1%) n (%)
Parasomnias (HLT): 2 (<1%) n (%)
Pelvic Prolapse* (HLT): 2 (<1%) n (%)
Photosensitivity Conditions (HLT): 1 (<1%) n (%)
Potassium Imbalance (HLT): 4 (<1%) n (%)
Prostatic signs, Symptoms and Disorders NEC* (HLT): 4 (<1%) n (%)
Pruritus NEC (HLT): 14 (<1%) n (%)
Purine Metabolism Disorders NEC (HLT): 1 (<1%) n (%)
Rashes, Eruptions and Exanthems NEC (HLT): 13 (<1%) n (%)
Rate and Rhythm Disorders NEC (HLT): 8 (<1%) n (%)
Renal Lithiasis (HLT): 2 (<1%) n (%)
Renal Neoplasms (HLT): 1 (<1%) n (%)
Reproductive Tract Disorders NEC (Excl Neoplasms) (HLT): 1 (<1%) n (%)
Reproductive Tract Signs and Symptoms NEC (HLT): 2 (<1%) n (%)
Respiratory Tract Disorders NEC (HLT): 1 (<1%) n (%)
Rheumatoid Arthropathies (HLT): 2 (<1%) n (%)
Rosaceas (HLT): 1 (<1%) n (%)
Scalar Conditions (HLT): 1 (<1%) n (%)
Sebaceous Gland Disorders (HLT): 1 (<1%) n (%)
Sexual Desire Disorders (HLT): 2 (<1%) n (%)
Site Specific Injuries NEC (HLT): 17 (1%) n (%)
Skin Injuries and Mechanical Dermatoses (HLT): 3 (<1%) n (%)
Skin Neoplasms Benign (HLT): 1 (<1%) n (%)
Skin Preneoplastic Conditions NEC (HLT): 1 (<1%) n (%)
Skin and Subcutaneous Tissue Ulcerations (HLT): 1 (<1%) n (%)
Sleep Disorders NEC (HLT): 2 (<1%) n (%)
Sodium Imbalance (HLT): 1 (<1%) n (%)
Soft Tissue Disorders NEC (HLT): 6 (<1%) n (%)
Spondyloarthropathies (HLT): 2 (<1%) n (%)
Structural and Obstructive Urethral Disorders (Excl Congenital) (HLT): 1 (<1%) n (%)
Supraventricular Arrhythmias (HLT): 18 (1%) n (%)
Tendon Disorders (HLT): 3 (<1%) n (%)
Thermal Burns (HLT): 1 (<1%) n (%)
Thoracic Cage Fractures and Dislocations (HLT): 2 (<1%) n (%)
Total Fluid Volume Increased (HLT): 1 (<1%) n (%)
Upper Limb Fractures and Dislocations (HLT): 7 (<1%) n (%)
Upper Respiratory Tract Signs and Symptoms (HLT): 36 (2%) n (%)
Urinary Abnormalities (HLT): 8 (<1%) n (%)
Urinary Tract Lithiasis (Excl Renal) (HLT): 2 (<1%) n (%)
Urinary Tract Signs and Symptoms NEC (HLT): 8 (<1%) n (%)
Urticarias (HLT): 4 (<1%) n (%)
Ventricular Arrhythmias and Cardiac Arrest (HLT): 3 (<1%) n (%)
Water Soluble Vitamin Deficiencies (HLT): 2 (<1%) n (%)
Connective Tissue Disorders (HLT (skin SOC)): 1 (<1%) n (%)
Abrasion NOS (PT): 1 (<1%) n (%)
Acne Aggravated (PT): 1 (<1%) n (%)
Acne NOS (PT): 1 (<1%) n (%)
Acute Myocardial Infarction (PT): 2 (<1%) n (%)
Affect Lability (PT): 1 (<1%) n (%)
Alopecia (PT): 1 (<1%) n (%)
Alopecia Areata (PT): 1 (<1%) n (%)
Amenorrhoea NOS* (PT): 2 (<1%) n (%)
Anal Injury (PT): 1 (<1%) n (%)
Angina Pectoris (PT): 2 (<1%) n (%)
Animal Bite (PT): 2 (<1%) n (%)
Ankle Fracture (PT): 1 (<1%) n (%)
Anorexia (PT): 11 (<1%) n (%)
Anxiety (PT): 12 (<1%) n (%)
Anxiety Aggravated (PT): 1 (<1%) n (%)
Anxiety Disorder (PT): 1 (<1%) n (%)
Appetite Decreased NOS (PT): 2 (<1%) n (%)
Appetite Increased NOS (PT): 2 (<1%) n (%)
Arthralgia (PT): 29 (2%) n (%)
Arthralgia Aggravated (PT): 1 (<1%) n (%)
Arthritis NOS (PT): 1 (<1%) n (%)
Arthropod Sting (PT): 2 (<1%) n (%)
Asthenia (PT): 2 (<1%) n (%)
Asthma Aggravated (PT): 2 (<1%) n (%)
Asthma NOS (PT): 6 (<1%) n (%)
Atrial Fibrillation (PT): 2 (<1%) n (%)
Atrial Fibrillation Aggravated (PT): 1 (<1%) n (%)
Atrial Flutter (PT): 1 (<1%) n (%)
Atrial Hypertrophy (PT): 1 (<1%) n (%)
Atrioventricular Block NOS (PT): 1 (<1%) n (%)
Axillary Pain (PT): 1 (<1%) n (%)
Back Injury NOS (PT): 3 (<1%) n (%)
Back Pain Aggravated (PT): 2 (<1%) n (%)
Benign Prostatic Hyperplasia* (PT): 3 (<1%) n (%)
Bloody Discharge (PT): 1 (<1%) n (%)
Bradycardia NOS (PT): 2 (<1%) n (%)
Breast Cyst* (PT): 2 (<1%) n (%)
Breast Engorgement* (PT): 1 (<1%) n (%)
Breast Pain* (PT): 2 (<1%) n (%)
Breast Tenderness* (PT): 1 (<1%) n (%)
Bundle Branch Block Right (PT): 3 (<1%) n (%)
Bursitis (PT): 1 (<1%) n (%)
Calculus Renal NOS (PT): 2 (<1%) n (%)
Calculus Ureteric (PT): 2 (<1%) n (%)
Catarrh (PT): 2 (<1%) n (%)
